Measured values from US20220251036A1, “DIFLUOROHALOALLYLAMINE SULFONE DERIVATIVE INHIBITORS OF LYSYL OXIDASES, METHODS OF PREPARATION, AND USES THEREOF” (PHARMAXIS LTD., priority 2019, published 2022).
Structures can show the parent of a compound that is named as a salt.

How the values were obtained:
Human recombinant LOXL2 = molecular target: T1, Human recombinant LOXL2 (Homo sapiens, UniProt Q9Y4K0); assay: LOXL2 inhibition, Amplex Red oxidation assay; format: biochemical; settings: incubation with enzyme 30 min at 37° C; read-out: Human recombinant LOXL2 Activity IC50
T1 sequence (Q9Y4K0 26-774): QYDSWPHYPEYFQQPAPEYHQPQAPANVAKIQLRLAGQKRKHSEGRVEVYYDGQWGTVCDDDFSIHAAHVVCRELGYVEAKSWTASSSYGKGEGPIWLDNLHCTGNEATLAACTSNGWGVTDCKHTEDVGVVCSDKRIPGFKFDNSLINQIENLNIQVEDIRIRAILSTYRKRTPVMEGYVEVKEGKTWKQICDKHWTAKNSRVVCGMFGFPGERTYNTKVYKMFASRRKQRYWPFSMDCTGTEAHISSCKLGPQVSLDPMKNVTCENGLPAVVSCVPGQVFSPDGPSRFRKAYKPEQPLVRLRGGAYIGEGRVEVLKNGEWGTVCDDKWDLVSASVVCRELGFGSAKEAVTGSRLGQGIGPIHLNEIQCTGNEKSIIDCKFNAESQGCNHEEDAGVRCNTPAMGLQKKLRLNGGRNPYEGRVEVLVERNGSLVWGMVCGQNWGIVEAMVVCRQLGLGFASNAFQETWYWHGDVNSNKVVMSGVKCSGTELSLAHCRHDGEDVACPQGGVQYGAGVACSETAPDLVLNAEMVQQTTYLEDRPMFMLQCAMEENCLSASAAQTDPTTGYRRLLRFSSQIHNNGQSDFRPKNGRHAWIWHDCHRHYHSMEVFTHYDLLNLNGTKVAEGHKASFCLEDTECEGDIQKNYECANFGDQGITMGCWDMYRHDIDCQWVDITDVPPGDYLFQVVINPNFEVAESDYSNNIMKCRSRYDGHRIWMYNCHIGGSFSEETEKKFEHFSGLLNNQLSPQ
Description: (§1) LOX and LOXL protein family members can be acquired as recombinant active proteins from commercial sources, or extracted from animal tissues like bovine aorta, tendons, pig skin; or prepared from cell cultures. […] The assay was developed using either 384 or 96 well format. Briefly, in a standard black, clear bottom 384 well plate assay 25 μL of a dilution of any of the isoenzymes and orthologues in 1.2 M urea, 50 mM sodium borate buffer (pH 8.2) were added into each well in the presence of 1 μM mofegiline and 0.5 mM pargyline (to inhibit SSAO and MAO-B and MAO-A, respectively; not necessary if the enzyme is from a recombinant or purified form). Test compounds were dissolved in DMSO and tested in a Concentration Response Curve (CRC) with 11 data points, typically in the micromolar or nanomolar range after incubation with the enzyme for 30 min at 37° C. 25 μL of a reaction mixture containing twice the KM concentration of putrescine (Sigma Aldrich, e.g. 20 mM for LOX and LOXL1 or 10 mM for LOXL2 and 4 mM for LOXL3 and LOXL4), 120 μM Amplex Red (Sigma Aldrich) and 1.5 U/mL horseradish peroxidase (Sigma Aldrich) prepared in 1.2 M urea, 50 mM sodium borate buffer (pH 8.2) were then added to the corresponding wells. The above volumes were doubled in the case of 96 wells plate. The fluorescence (RFU) was read every 2.5 min for 30 min at […] 37° C., excitation 565 nm and emission 590 (Optima; BMG labtech). The slope of the kinetics for each well was calculated using MARS data analysis software (BMG labtech) and this value was used to deduce the IC50 value (Dotmatics). The ability of the inventive compounds to inhibit the amine oxidase activity of LOX and other family members is shown in Table 4.

Bovine LOX = molecular target: T2, Bovine LOX (Bos taurus, UniProt P33072); assay: LOX inhibition, Amplex Red oxidation assay; format: biochemical; settings: for IC50: incubation with enzyme 30 min at 37° C, read-out: Bovine LOX Activity IC50
T2 sequence (P33072 170-418): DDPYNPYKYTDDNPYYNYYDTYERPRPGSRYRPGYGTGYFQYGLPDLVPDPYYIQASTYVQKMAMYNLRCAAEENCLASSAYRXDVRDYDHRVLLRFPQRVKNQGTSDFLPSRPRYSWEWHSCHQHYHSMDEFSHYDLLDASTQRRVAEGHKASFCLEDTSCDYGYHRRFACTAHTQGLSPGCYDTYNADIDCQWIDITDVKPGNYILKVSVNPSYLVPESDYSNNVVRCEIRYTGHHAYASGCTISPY
Description: as §1

Row | Compound | IC50 (Human recombinant LOXL2) | IC50 (Bovine LOX) | inhibitory activity (in words) (Bovine LOX; LOX / LOXL preparations, compared with Compound 1)
1 | NC/C=C(\F)C(F)(F)S(=O)(=O)c1ccccc1O [Compound 11, (Z)-2-((4-amino-1,1,2-trifluorobut-2-en-1-yl)sulfonyl)phenol] | 1.7 µM | > 30 µM | 
2 | CS(=O)(=O)c1cccc(S(=O)(=O)C(F)(F)/C(F)=C/CN)c1 [Compound 3, (Z)-3,4,4-trifluoro-4-((3-(methylsulfonyl)phenyl)sulfonyl)but-2-en-1-amine] | 0.7 µM | 11.1 µM | 
3 | [2H]c1c([2H])c([2H])c(S(=O)(=O)C(F)(F)/C(F)=C/CN)c([2H])c1[2H] [Compound 18, (Z)-3,4,4-trifluoro-4-((phenyl-d5)sulfonyl)but-2-en-1-amine] | 0.7 µM | 3.6 µM | 
4 | Cc1occc1S(=O)(=O)C(F)(F)/C(F)=C/CN [Compound 15, (Z)-3,4,4-trifluoro-4-((2-methylfuran-3-yl)sulfonyl)but-2-en-1-amine] | 0.7 µM | 5.9 µM | 
5 | NC/C=C(\F)C(F)(F)S(=O)(=O)c1ccccc1N1CCS(=O)(=O)CC1 [Compound 7, (Z)-4-(2-((4-amino-1,1,2--trifluorobut-2-en-1-yl)sulfonyl)phenyl)thiomorpholine 1,1-dioxide, hydrochloride] | 2 µM | 22.8 µM | 
6 | NC/C=C(/F)C(F)(F)S(=O)(=O)c1ccccc1 [Compound 1(E)] | 2.1 µM | 23.1 µM | significantly reduced inhibitory activity
7 | CS(=O)(=O)c1cccc(Oc2cccc(S(=O)(=O)C(F)(F)/C(F)=C/CN)c2)c1 [Compound 20, (Z)-3,4,4-trifluoro-4-((3-(3-(methylsulfonyl)phenoxy)phenyl)sulfonyl)but-2-en-1-amine] |  | 4.4 µM | 
8 | Cc1cccc(S(=O)(=O)C(F)(F)/C(F)=C/CN)c1 [Compound 13, (Z)-3,4,4-trifluoro-4-(m-tolylsulfonyl)but-2-en-1-amine] | 0.5 µM | 3.9 µM | 
